These results are taken from patent US10537609B2, “MUC1 decoy peptides for treatment and prevention of bacterial infections” (priority 2014, dated 2020).

Assay [1] deals with P. aeruginosa (Pa) adhesion to A549 cells. As to the kind of experiment: Bacterial adhesion assay: Pa preincubated with test material, then adhesion to A549 cell monolayers. The following applies: for blocking of Pa adhesion to ECs by free monosaccharides: Pa preincubated 30 min with 5, 10 or 25 mM, separately or in combination (FIG. 10); for reduction of Pa adhesion: Pa preincubated 30 min with shed MUC1-ED preparation, adhesion to fresh A549 monolayers, compared with respective controls (FIG. 11).

The test system of another assay is MUC1-NEU1 association. The following applies: A549 cells preincubated 30 min with 5.0 μM, then 10 ng/ml Pa flagellin 30 min.
The test system of assay [2] is Pseudomonas aeruginosa lung infection. Put plainly: Mouse survival following Pseudomonas aeruginosa lung infection. Format: in vivo, BALB/c mice. The following applies: Pa intranasally at LD90 (2.0×10^7 CFU/mouse); MUC1-ED 2.5 μg/mouse, cefepime 1.0 μg/mouse; n=7/group. As to the method:
FIG. 14. Effect of E. coli MUC1-ED With or Without Cefepime on Mouse Survival Following Pseudomonas aeruginosa Lung Infection. Pseudomonas aeruginosa was administered intranasally to BALB/c mice at an LD90 (2.0×10^7 CFU/mouse) with PBS control or E. coli-expressed MUC1-ED (2.5 μg/mouse). Simultaneously, PBS or cefepime (1.0 μg/mouse) was administered intraperitoneally, and mouse survival was measured daily (n=7/group).
P. aeruginosa was administered intranasally to groups of seven BALB/c mice at an LD90 (2.0×10^7 CFU/mouse). The control group (group #1) received PBS intraperitoneally as therapy; group #2 received MUC1-ED (2.5 μg/mouse) intraperitoneally; group #3 received cefepime (1.0 μg/mouse) intraperitoneally; group #4 received MUC1-ED (2.5 μg/mouse) and cefepime (1.0 μg/mouse) simultaneously, intraperitoneally. The MUC1-ED was E. coli-expressed deglycosylated peptide having the amino acid sequence set forth in SEQ ID NO:2.

The test system of a further assay is Pa lung infection. Put plainly: Mouse model of Pa lung infection, Pa CFU in BALF and lungs. The following applies: Pa preincubated with MUC1-ED; 10^5 CFU/mouse i.t.; 48 h and 72 h post-challenge; vs PBS control.

`O=C[C@H](O)[C@@H](O)[C@@H](O)[C@H](O)CO` [galactose, reference compound]: the “blocking of Pa adhesion to ECs by free monosaccharides” value (shortened to “blocking … by free monosaccharides”) in assay [1] is given as “None of these monosaccharides, either separately or in combination, blocked Pa adhesion to ECs”. As to “MUC1-ED from tunicamycin-treated ECs: MUC1-ED from supernates of airway ECs cultured with the N-glycosylation inhibitor tunicamycin”, in assay [1], the “reduction of Pa adhesion” value is “did not reduce Pa adhesion”. Turning to `N#CC(=C(/N)Sc1ccccc1N)/C(C#N)=C(\N)Sc1ccccc1N` [U0126], the “effect on MUC1-NEU1 co-immunoprecipitation” value in the assay on MUC1-NEU1 association was “failed to alter MUC1-NEU1 co-immunoprecipitation”. Take “MUC1-ED from E. coli transformed with pMUC1: deglycosylated form of MUC1-ED prepared by transformation of Escherichia coli with a MUC1 expression plasmid (pMUC1); SEQ ID NO:2 per b204”: the “survival over seven days” value in assay [2] is on record as around 45%. In addition, the “reduction of Pa adhesion” value in assay [1] is on record as 93%. Besides, in assay [1] (comparison in the discussion, single repeat vs MUC1-ED containing 15 repeats), the “maximum inhibition of Pa adhesion” value is on record as above 90%. In addition, in the assay on Pa lung infection, the “number of Pa recovered from BALF (CFU)” value is “reduced the number of Pa recovered” and the “number of Pa recovered from lungs (CFU)” value is given as “reduced the number of Pa recovered”. For the compound “MUC1-ED: shed MUC1 ectodomain in airway EC culture supernates”, the “MUC1-ED concentrations capable of inhibiting Pa adhesion in vitro” value in assay [1] (shed MUC1-ED in EC culture supernates (FIGS. 9A, 9B)) is on record as at most 0.63 μg/m1. Turning to “desialylated MUC1-ED from Ad-NEU1-infected ECs: MUC1-ED prepared from culture supernates of airway ECs infected with Ad-NEU1”, the “reduction of Pa adhesion” value in assay [1] is around 65%. Turning to `CC(=O)N[C@H]1C(O)O[C@H](CO)[C@H](O)[C@@H]1O` (some centres unmarked) [N-acetylgalactosamine, reference compound], the “blocking … by free monosaccharides” value in assay [1] is on record as “None of these monosaccharides, either separately or in combination, blocked Pa adhesion to ECs”. For `CO/N=C(\C(=O)N[C@@H]1C(=O)N2C(C(=O)[O-])=C(C[N+]3(C)CCCC3)CS[C@H]12)c1csc(N)n1` [cefepime, reference compound], in assay [2], the “survival over seven days” value is given as around 62.5%.

Regarding “MUC1-ED from GalNAc-O-bn-treated ECs: MUC1-ED from supernates of airway ECs cultured with the O-glycosylation inhibitor benzyl-N-acetyl-α-galactosaminide”, the “reduction of Pa adhesion” value in assay [1] was determined as 88%. As for `CC(=O)N[C@H]1C(O)O[C@H](CO)[C@@H](O)[C@@H]1O` (some centres unmarked) [N-acetylglucosamine, reference compound], the “blocking … by free monosaccharides” value in assay [1] is “None of these monosaccharides, either separately or in combination, blocked Pa adhesion to ECs”.
